Measurements from US10689622B2, “Culture medium for proliferating stem cell, which contains sulfated compound” (AJINOMOTO CO., INC., priority 2012, dated 2020).

What was measured:
[1] = molecular target: T1, bFGF (Homo sapiens, UniProt P09038); experiment: Evaluation of bFGF stabilization in Essential 8 medium (ELISA); format: biochemical; settings: 37° C. for 7 days
T1 construct: purchased Lonza (via TAKARA BIO INC.) Ser. No. 00/190,632
Protocol: (§1) A commercially available measurement kit (human bFGF ELISA kit, ELH-bFGF-001, Ray Biotech) was used for quantification of bFGF in the medium. The measurement procedures followed the protocol attached to the kit. The bFGF concentration of the serum-free medium was calculated from the analytical curve (conversion formula) drawn from the absorbance of an analytical curve standard solution. The evaluation criteria of Tables 5-8 are as follows:
A test compound was dissolved in phosphate buffered saline, and diluted 10-fold with a serum-free medium to adjust the concentration shown in Table 4 (test sample). The test sample was left standing in a tightly sealed Falcon tube at 37° C. for 7 days, and the bFGF concentration was quantified by ELISA measurement. A phosphate buffered saline without a test compound was diluted 10-fold with Essential 8 medium or ReproFF2 medium, and left standing at 37° C. or 4° C. for 7 days, and used as a control.
A commercially available measurement kit (human bFGF ELISA kit, ELH-bFGF-001, Ray Biotech) was used for quantification of bFGF in the medium. The measurement procedures followed the protocol attached to the kit. The bFGF concentration of the serum-free medium was calculated from the analytical curve (conversion formula) drawn from the absorbance of an analytical curve standard solution. The evaluation criteria of Table 13 are as follows:
A test compound was dissolved in phosphate buffered saline, and diluted 10-fold with a serum-free medium to adjust the concentration shown in Table 12 (test sample). The test sample was left standing in a tightly sealed Falcon tube at 37° C. for 7 days, and the bFGF concentration was quantified by ELISA measurement. A phosphate buffered saline without a test compound was diluted 10-fold with Essential 8 medium or ReproFF2 medium, and left standing at 37° C. or 4° C. for 7 days, and used as a control.

[2] = Measurement of content level of sulfur in test compound (ICP); format: physicochemical; settings: ICPS-8100, evaluation samples containing 0.01 wt % test compound
Text: The content level of sulfur in the sulfated saccharide is generally not less than 5 wt %, preferably not less than 10 wt %, more preferably not less than 15 wt %, and the upper limit is generally not more than 40 wt %, preferably not more than 35 wt %, more preferably not more than 30 wt %. […] Here, the content level of sulfur is a proportion in wt % of sulfur derived only from the sulfate group in sulfated saccharides, which can be measured by a method known in the field (e.g., rhodizonate method, elemental analysis or luminescent spectral analysis).
The content level of sulfur in the sulfated polymer is generally not less than 5 wt %, preferably not less than 10 wt %, more preferably not less than 15 wt %, and the upper limit is generally not more than 40 wt %. […] Here, the content level of sulfur is a proportion in wt % of sulfur in the sulfated polymer, which can be measured by a method known in the field such as rhodizonate method, elemental analysis or luminescent spectral analysis).
The relationship between the content level of sulfur in a test compound (sulfur content) and the cell proliferation promoting effect was examined. The sulfur content was measured using ICPS-8100 manufactured by SHIMADZU CORPORATION and analyzed using ICPS-8000 series Ver1.03. As the reference standard of sulfur, the standard for ICP-MS manufactured by Accu Standard was used. Sulfur reference standard solutions (0, 1, 10, 30, 50 ppm) were prepared, and the sulfur content of the evaluation samples containing 0.01 wt % test compound was measured by an analytical curve method.

[3] = molecular target: T1, bFGF; experiment: Evaluation of bFGF stabilization in Lonza serum-free medium (ELISA); format: biochemical; settings: for bFGF concentration relative to that of 4° C. control (ELISA): Lonza serum-free medium, 37° C. for 7 days; for effectiveness ELISA: effectiveness in ELISA evaluation of mesenchymal stem cells (medium), 4° C. control ratio
Protocol: A test compound was dissolved in phosphate buffered saline, and diluted 10-fold with a serum-free medium to adjust to the concentrations shown in Table 4 (test sample). The test sample was left standing in a tightly sealed Falcon tube at 37° C. for 7 days (Tables 5 to 8-2) or 3 days (Table 8-3), and the bFGF concentration was quantified by ELISA measurement. A phosphate buffered saline without a test compound was diluted 10-fold with a serum-free medium, and left standing at 37° C. or 4° C. for 7 days or 3 days, and used as a control.
as §1
A test compound was dissolved in phosphate buffered saline, and diluted 10-fold with a serum-free medium to adjust to the concentrations shown in Table 13 (test sample). The test sample was left standing in a tightly sealed Falcon tube at 37° C. for 7 days, and the bFGF concentration was quantified by ELISA measurement. A phosphate buffered saline without a test compound was diluted 10-fold with a serum-free medium, and left standing at 37° C. or 4° C. for 7 days, and used as a control.
A commercially available measurement kit (human bFGF ELISA kit, ELH-bFGF-001, Ray Biotech) was used for quantification of bFGF in the medium. The measurement procedures followed the protocol attached to the kit. The bFGF concentration of the serum-free medium was calculated from the analytical curve (conversion formula) drawn from the absorbance of an analytical curve standard solution. The evaluation criteria of Table 13 are as follows: […]

[4] = tested on: Human bone marrow-derived mesenchymal stem cells; experiment: Mesenchymal stem cell proliferation system (cell number by DNA quantification)

T1 sequence (P09038 143-288): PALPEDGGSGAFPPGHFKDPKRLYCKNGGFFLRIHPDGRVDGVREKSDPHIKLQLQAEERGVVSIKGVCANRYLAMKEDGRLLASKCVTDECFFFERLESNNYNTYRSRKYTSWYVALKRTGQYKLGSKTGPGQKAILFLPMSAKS

O=S(=O)([O-])OC1C(OS(=O)(=O)[O-])C(OS(=O)(=O)[O-])C(OS(=O)(=O)[O-])C(OS(=O)(=O)[O-])C1OS(=O)(=O)[O-].[K+].[K+].[K+].[K+].[K+].[K+] (centres unmarked) [myo-inositol 6SO3K]
concentration showing a suppressive effect on a decrease in the bFGF concentration of the medium [1]: not less than 25 μg/ml
bFGF concentration relative to that of 4° C. control (ELISA) ([1]; test compound 250 pg/ml): x (bFGF concentration was less than 10% relative to that of 4 °C control)
bFGF concentration relative to that of 4° C. control (ELISA) ([1]; test compound 25 ng/ml): x (bFGF concentration was less than 10% relative to that of 4 °C control)
bFGF concentration relative to that of 4° C. control (ELISA) ([1]; test compound 250 ng/ml): x (bFGF concentration was less than 10% relative to that of 4 °C control)
bFGF concentration relative to that of 4° C. control (ELISA) ([1]; test compound 25 μg/ml): +++ (bFGF concentration was not less than 70% relative to that of 4 °C control)
bFGF concentration relative to that of 4° C. control (ELISA) ([1]; test compound 250 μg/ml): +++ (bFGF concentration was not less than 70% relative to that of 4 °C control)
sulfur content Found (inorganic analysis) [2]: 19 wt %
bFGF concentration relative to that of 4° C. control (ELISA) ([3]; test compound 25 ng/ml): x (bFGF concentration was less than 10% relative to that of 4 °C control)
bFGF concentration relative to that of 4° C. control (ELISA) ([3]; test compound 250 ng/ml): x (bFGF concentration was less than 10% relative to that of 4 °C control)
bFGF concentration relative to that of 4° C. control (ELISA) ([3]; test compound 25 μg/ml): + (bFGF concentration was not less than 30% and less than 50% relative to that of 4 °C control)
bFGF concentration relative to that of 4° C. control (ELISA) ([3]; test compound 250 μg/ml): ++ (bFGF concentration was not less than 50% and less than 70% relative to that of 4 °C control)
effectiveness ELISA [3]: +++ (+++ 70%<)

glucose SO3Na
concentration showing a suppressive effect on a decrease in the bFGF concentration of the medium [1]: not less than 2.5 mg/ml
bFGF concentration relative to that of 4° C. control (ELISA) ([1]; test compound 250 pg/ml): x (bFGF concentration was less than 10% relative to that of 4 °C control)
bFGF concentration relative to that of 4° C. control (ELISA) ([1]; test compound 25 ng/ml): x (bFGF concentration was less than 10% relative to that of 4 °C control)
bFGF concentration relative to that of 4° C. control (ELISA) ([1]; test compound 250 ng/ml): x (bFGF concentration was less than 10% relative to that of 4 °C control)
bFGF concentration relative to that of 4° C. control (ELISA) ([1]; test compound 25 μg/ml): +++ (bFGF concentration was not less than 70% relative to that of 4 °C control)
bFGF concentration relative to that of 4° C. control (ELISA) ([1]; test compound 250 μg/ml): +++ (bFGF concentration was not less than 70% relative to that of 4 °C control)
sulfur content Found (inorganic analysis) [2]: 23 wt %
bFGF concentration relative to that of 4° C. control (ELISA) ([3]; test compound 25 ng/ml): x (bFGF concentration was less than 10% relative to that of 4 °C control)
bFGF concentration relative to that of 4° C. control (ELISA) ([3]; test compound 250 ng/ml): x (bFGF concentration was less than 10% relative to that of 4 °C control)
bFGF concentration relative to that of 4° C. control (ELISA) ([3]; test compound 25 μg/ml): x (bFGF concentration was less than 10% relative to that of 4 °C control)
bFGF concentration relative to that of 4° C. control (ELISA) ([3]; test compound 250 μg/ml): − (bFGF concentration was not less than 10% and less than 30% relative to that of 4 °C control)
effectiveness ELISA [3]: + (+ 30%<)

glycerol SO3Na
sulfur content Found (inorganic analysis) [2]: 23 wt %
bFGF concentration relative to that of 4° C. control (ELISA) ([3]; test compound 25 ng/ml): x (bFGF concentration was less than 10% relative to that of 4 °C control)
bFGF concentration relative to that of 4° C. control (ELISA) ([3]; test compound 250 ng/ml): x (bFGF concentration was less than 10% relative to that of 4 °C control)
bFGF concentration relative to that of 4° C. control (ELISA) ([3]; test compound 25 μg/ml): x (bFGF concentration was less than 10% relative to that of 4 °C control)
bFGF concentration relative to that of 4° C. control (ELISA) ([3]; test compound 250 μg/ml): x (bFGF concentration was less than 10% relative to that of 4 °C control)
effectiveness ELISA [3]: + (+ 30%<)

tartrate-SO3Na
effectiveness cells ([4]; growth of mesenchymal stem cell, control ratio): ◯ (◯ not leas than 100%)
concentration showing promoted cell proliferation as compared to the control ([4]; mesenchymal stem cells, Lonza serum-free medium): 2.5 ng/mL
concentration showing a suppressive effect on a decrease in the bFGF concentration of the medium [1]: not less than 250 μg/ml
bFGF concentration relative to that of 4° C. control (ELISA) ([1]; test compound 250 pg/ml): x (bFGF concentration was less than 10% relative to that of 4 °C control)
bFGF concentration relative to that of 4° C. control (ELISA) ([1]; test compound 25 ng/ml): x (bFGF concentration was less than 10% relative to that of 4 °C control)
bFGF concentration relative to that of 4° C. control (ELISA) ([1]; test compound 250 ng/ml): x (bFGF concentration was less than 10% relative to that of 4 °C control)
bFGF concentration relative to that of 4° C. control (ELISA) ([1]; test compound 25 μg/ml): x (bFGF concentration was less than 10% relative to that of 4 °C control)
bFGF concentration relative to that of 4° C. control (ELISA) ([1]; test compound 250 μg/ml): − (bFGF concentration was not less than 10% and less than 30% relative to that of 4 °C control)
bFGF concentration relative to that of 4° C. control (ELISA) ([3]; test compound 25 ng/ml): x (bFGF concentration was less than 10% relative to that of 4 °C control)
bFGF concentration relative to that of 4° C. control (ELISA) ([3]; test compound 250 ng/ml): − (bFGF concentration was not less than 10% and less than 30% relative to that of 4 °C control)
bFGF concentration relative to that of 4° C. control (ELISA) ([3]; test compound 25 μg/ml): x (bFGF concentration was less than 10% relative to that of 4 °C control)
bFGF concentration relative to that of 4° C. control (ELISA) ([3]; test compound 250 μg/ml): x (bFGF concentration was less than 10% relative to that of 4 °C control)
concentration at which a decrease in the protein amount of FGF is not suppressed ([3]; as shown in the Examples (methods of Examples I-1 and II-1)): not more than 250 μg/ml
effectiveness ELISA [3]: ++ (++ 50%<)
